ChEMBL document CHEMBL5370591, “A Potent and Narrow-Spectrum Antibacterial against Clostridioides difficile Infection” (J Med Chem, 2023)
Converted amounts (≈) assume the structure as drawn. The source made the active and inactive calls. The rule behind the calls is not given here.

Legend:
Clostridioides difficile [1] = assay: Antibacterial activity against Clostridium difficile ATCC 43255 assessed as as time duration of post-antibiotic effect for suppression of bacterial growth at 4 times MIC incubated for 1 hr in broth solution; assay type: functional
HepG2 = assay: Antiproliferative activity against human HepG2 cells assessed as inhibition of cell growth by XTT assay; assay type: functional, cell-based
[2] = Selectivity ratio of IC50 for human HepG2 cells to MIC for Clostridium difficile ATCC 43255; assay type: toxicity
Lactobacillus gasseri = assay: Antibacterial activity against Lactobacillus gasseri HM-644 assessed as inhibition of bacterial growth measured after 48 hrs by two fold serial dilution method; assay type: functional
Escherichia coli = assay: Antibacterial activity against Escherichia coli ATCC25922 assessed as inhibition of bacterial growth measured after 48 hrs by two fold serial dilution method; assay type: functional
Eubacterium sp. = assay: Antibacterial activity against Eubacterium sp. HM-178 assessed as inhibition of bacterial growth measured after 48 hrs by two fold serial dilution method; assay type: functional
Clostridioides difficile [3] = assay: Induction of resistance against Clostridium difficile ATCC 43255 assessed as fold increase in MIC measured after 8 passages under anaerobic conditions; assay type: functional
Clostridioides difficile [4] = assay: Antibacterial activity against Clostridium difficile 24531 clinical isolate assessed as inhibition of bacterial growth measured after 48 hrs by two fold serial dilution method; assay type: functional
Streptococcus pyogenes = assay: Antibacterial activity against Streptococcus pyogenes ATCC 49399 assessed as inhibition of bacterial growth measured after 48 hrs by two fold serial dilution method; assay type: functional
[5] = tested on: Staphylococcus haemolyticus; assay: Antibacterial activity against Staphylococcus haemolyticus ATCC 29970 assessed as inhibition of bacterial growth measured after 48 hrs by two fold serial dilution method; assay type: functional
Klebsiella pneumoniae = assay: Antibacterial activity against Klebsiella pneumoniae ATCC700603 assessed as inhibition of bacterial growth measured after 48 hrs by two fold serial dilution method; assay type: functional
Staphylococcus aureus [6] = assay: Antibacterial activity against methicillin/oxacillin/tetracycline resistant vancomycin resistant Staphylococcus aureus NRS100 assessed as inhibition of bacterial growth measured after 48 hrs by two fold serial dilution method; assay type: functional
[7] = Selectivity ratio of MBC for bactericidal activity against Clostridium difficile ATCC 43255 to MIC for antibacterial activity for Clostridium difficile ATCC 43255; assay type: functional, Clostridioides difficile
[8] = Selectivity ratio of IC50 for human THP-1 cells to MIC for Clostridium difficile ATCC 43255; assay type: toxicity
Clostridioides difficile [9] = assay: Induction of resistance against Clostridium difficile ATCC 43255 assessed as fold increase in MIC measured after 14 passages under anaerobic conditions; assay type: functional
Staphylococcus aureus [10] = assay: Antibacterial activity against ciprofloxacin/gentamicin/oxacillin/pencillin/linezolid resistant Staphylococcus aureus NRS119 assessed as inhibition of bacterial growth measured after 48 hrs by two fold serial dilution method; assay type: functional
Clostridioides difficile [11] = assay: Antibacterial activity against Clostridium difficile ATCC 43255 assessed as as time duration of post-antibiotic effect for suppression of bacterial growth at 8 times MIC incubated for 1 hr in broth solution; assay type: functional
Clostridioides difficile [12] = assay: Antibacterial activity against Clostridium difficile 26675 clinical isolate assessed as inhibition of bacterial growth measured after 48 hrs by two fold serial dilution method; assay type: functional
Clostridioides difficile [13] = assay: Antibacterial activity against Clostridium difficile ATCC 43255 measured after 48 hrs by two fold serial dilution method; assay type: functional
Enterococcus faecalis = assay: Antibacterial activity against vancomycin resistant Enterococcus faecalis 99 clinical isolate assessed as inhibition of bacterial growth measured after 48 hrs by two fold serial dilution method; assay type: functional
THP-1 = assay: Cytotoxicity against human THP-1 cells assessed as increase in LDH release incubate for 24 hrs by trypan-blue staining based analysis; assay type: functional, cell-based; conditions: THP-1, 24 h
Clostridioides difficile [14] = assay: Antibacterial activity against Clostridium difficile BAA-1870 assessed as inhibition of bacterial growth measured after 48 hrs by two fold serial dilution method; assay type: functional
Clostridioides difficile [15] = assay: Antibacterial activity against Clostridium difficile NR49310 isolated from human feces assessed as inhibition of bacterial growth measured after 48 hrs by two fold serial dilution method; assay type: functional
Clostridioides difficile [16] = assay: Antibacterial activity against Clostridium difficile ATCC 43255 assessed as as time duration of post-antibiotic effect for suppression of bacterial growth at 2 times MIC incubated for 1 hr in broth solution; assay type: functional
Clostridioides difficile [17] = assay: Antibacterial activity against Clostridium difficile NR49292 assessed as inhibition of bacterial growth measured after 48 hrs by two fold serial dilution method; assay type: functional
Pseudomonas aeruginosa = assay: Antibacterial activity against Pseudomonas aeruginosa ATCC27853 assessed as inhibition of bacterial growth measured after 48 hrs by two fold serial dilution method; assay type: functional
[18] = tested on: Limosilactobacillus reuteri; assay: Antibacterial activity against Lactobacillus reuteri HM-102 assessed as inhibition of bacterial growth measured after 48 hrs by two fold serial dilution method; assay type: functional
Acinetobacter baumannii = assay: Antibacterial activity against Acinetobacter baumannii ATCC17961 assessed as inhibition of bacterial growth measured after 48 hrs by two fold serial dilution method; assay type: functional
Clostridioides difficile [19] = assay: Antibacterial activity against Clostridium difficile ATCC 43255 assessed as log reduction in bacterial growth at 1 to 8 times MIC measured upto 48 hrs under anaerobic condition; assay type: functional
Clostridioides difficile [20] = assay: Antibacterial activity against Clostridium difficile ATCC 43255 isolated from abdominal wound assessed as inhibition of bacterial growth measured after 48 hrs by two fold serial dilution method; assay type: functional
Enterococcus faecium [21] = assay: Antibacterial activity against vancomycin resistant Enterococcus faecium 106 clinical isolate assessed as inhibition of bacterial growth measured after 48 hrs by two fold serial dilution method; assay type: functional
Clostridioides difficile [22] = assay: Antibacterial activity against Clostridium difficile NR49302 isolated from human feces assessed as inhibition of bacterial growth measured after 48 hrs by two fold serial dilution method; assay type: functional
Clostridioides difficile [23] = assay: Antibacterial activity against Clostridium difficile ATCC 43255 assessed as as time duration of post-antibiotic effect for suppression of bacterial growth at 1 time MIC incubated for 1 hr in broth solution; assay type: functional
Clostridioides difficile [24] = assay: Antibacterial activity against Clostridium difficile NR49294 isolated from human feces assessed as inhibition of bacterial growth measured after 48 hrs by two fold serial dilution method; assay type: functional
Clostridioides difficile [25] = assay: Bactericidal activity against Clostridium difficile ATCC 43255 incubated for 48 hrs under anaerobic conditions; assay type: functional
Corynebacterium sp. = assay: Antibacterial activity against Corynebacterium sp. HM-784 assessed as inhibition of bacterial growth measured after 48 hrs by two fold serial dilution method; assay type: functional
Enterococcus faecium [26] = assay: Antibacterial activity against vancomycin susceptible Enterococcus faecium119-39A clinical isolate assessed as inhibition of bacterial growth measured after 48 hrs by two fold serial dilution method; assay type: functional; conditions: 119-39A
Clostridioides difficile [27] = assay: Induction of resistance against Clostridium difficile ATCC 43255 assessed as fold increase in MIC measured after 20 passages under anaerobic conditions; assay type: functional
Clostridioides difficile [28] = assay: Antibacterial activity against Clostridium difficile 23828 clinical isolate assessed as inhibition of bacterial growth measured after 48 hrs by two fold serial dilution method; assay type: functional
Clostridioides difficile [29] = assay: Antibacterial activity against Clostridium difficile NR49305 isolated from human feces assessed as inhibition of bacterial growth measured after 48 hrs by two fold serial dilution method; assay type: functional
Klebsiella aerogenes = assay: Antibacterial activity against Klebsiella aerogenes ATCC35029 assessed as inhibition of bacterial growth measured after 48 hrs by two fold serial dilution method; assay type: functional
Clostridioides difficile [30] = assay: Antibacterial activity against Clostridium difficile NR49318 isolated from human feces assessed as inhibition of bacterial growth measured after 48 hrs by two fold serial dilution method; assay type: functional
Clostridioides difficile [31] = assay: Antibacterial activity against Clostridium difficile BAA-1803 clinical isolate assessed as inhibition of bacterial growth measured after 48 hrs by two fold serial dilution method; assay type: functional
Clostridioides difficile [32] = assay: Antibacterial activity against Clostridium difficile ATCC 43255 assessed as damage in cell wall at 8 time MIC incubated for 24 hrs by scanning electron microscopy based analysis; assay type: functional, organism-based
Bacteroides fragilis = assay: Antibacterial activity against Bacteroides fragilis HM-709 assessed as inhibition of bacterial growth measured after 48 hrs by two fold serial dilution method; assay type: functional

O=[N+]([O-])c1c[nH]c(-c2nc(-c3ccc(OC4CCCC4)cc3)no2)n1 gave a Time (Clostridioides difficile [1]) of 7 h, an IC50 (HepG2) of 53.4 µg/mL (≈ 156 µM) and a selectivity ratio [2] of 214. The MIC (Lactobacillus gasseri) was greater than 128 µg/mL, the MIC (Escherichia coli) was greater than 128 µg/mL and the MIC (Eubacterium sp.) was 64 µg/mL (≈ 188 µM). The “fold change (FC)” value (Clostridioides difficile [3]) was 2, the MIC (Clostridioides difficile [4]) was 0.125 µg/mL (≈ 0.366 µM) and the MIC (Streptococcus pyogenes) was greater than 128 µg/mL. It also gave an MIC [5] of 32 µg/mL (≈ 93.8 µM), an MIC (Klebsiella pneumoniae) greater than 128 µg/mL and an MIC (Staphylococcus aureus [6]) of 64 µg/mL (≈ 188 µM). The Ratio [7] was 2, the selectivity ratio [8] was greater than 512 and the “fold change (FC)” value (Clostridioides difficile [9]) was 4. The MIC (Staphylococcus aureus [10]) was 32 µg/mL (≈ 93.8 µM), the Time (Clostridioides difficile [11]) was 7 h and the MIC (Clostridioides difficile [12]) was 2 µg/mL (≈ 5.86 µM). The MIC (Clostridioides difficile [13]) was 0.25 µg/mL (≈ 0.732 µM), the MIC (Enterococcus faecalis) was 128 µg/mL (≈ 375 µM) and the IC50 (THP-1) was greater than 128 µg/mL. For the same compound, the MIC (Clostridioides difficile [14]) was 0.125 µg/mL (≈ 0.366 µM), the MIC (Clostridioides difficile [15]) was 0.25 µg/mL (≈ 0.732 µM) and the Time (Clostridioides difficile [16]) was 5 h. It also gave an MIC (Clostridioides difficile [17]) of 0.125 µg/mL (≈ 0.366 µM), an MIC (Pseudomonas aeruginosa) greater than 128 µg/mL and an MIC [18] greater than 128 µg/mL. The MIC (Acinetobacter baumannii) was greater than 128 µg/mL, the Activity (Clostridioides difficile [19]) was 4 log10CFU/ml and the MIC (Clostridioides difficile [20]) was 0.25 µg/mL (≈ 0.732 µM). For the same compound, the MIC (Enterococcus faecium [21]) was 128 µg/mL (≈ 375 µM), the MIC (Clostridioides difficile [22]) was 0.25 µg/mL (≈ 0.732 µM) and the Time (Clostridioides difficile [23]) was 3 h. The MIC (Clostridioides difficile [24]) was 0.5 µg/mL (≈ 1.46 µM), the MBC (Clostridioides difficile [25]) was 0.5 µg/mL (≈ 1.46 µM) and the MIC (Corynebacterium sp.) was greater than 128 µg/mL. For the same compound, the MIC (Enterococcus faecium [26]) was 128 µg/mL (≈ 375 µM), the “fold change (FC)” value (Clostridioides difficile [27]) was 8 and the MIC (Clostridioides difficile [28]) was 1 µg/mL (≈ 2.93 µM). It also gave an MIC (Clostridioides difficile [29]) of 0.125 µg/mL (≈ 0.366 µM), an MIC (Klebsiella aerogenes) greater than 128 µg/mL and an MIC (Clostridioides difficile [30]) of 0.5 µg/mL (≈ 1.46 µM). The MIC (Clostridioides difficile [31]) was 0.125 µg/mL (≈ 0.366 µM), the Activity (Clostridioides difficile [32]) was “Active” and the MIC (Bacteroides fragilis) was 128 µg/mL (≈ 375 µM).
